# From patent US12358886B2, “Heterocyclic compounds for use in the treatment of cancer” (Artios Pharma Limited, priority 2019, dated 2025)
# Target: Polθ protein (amino acids 2-2590) (Homo sapiens, UniProt O75417)
# Experiment: Polθ full length enzyme potency assay (PicoGreen)
# Conditions: Polθ IC50 (nM), full length N-His, C-term FLAG tagged Polθ, PicoGreen fluorescence, 12 point concentration response
# Sequence of Polθ protein (amino acids 2-2590) (O75417 2-2590): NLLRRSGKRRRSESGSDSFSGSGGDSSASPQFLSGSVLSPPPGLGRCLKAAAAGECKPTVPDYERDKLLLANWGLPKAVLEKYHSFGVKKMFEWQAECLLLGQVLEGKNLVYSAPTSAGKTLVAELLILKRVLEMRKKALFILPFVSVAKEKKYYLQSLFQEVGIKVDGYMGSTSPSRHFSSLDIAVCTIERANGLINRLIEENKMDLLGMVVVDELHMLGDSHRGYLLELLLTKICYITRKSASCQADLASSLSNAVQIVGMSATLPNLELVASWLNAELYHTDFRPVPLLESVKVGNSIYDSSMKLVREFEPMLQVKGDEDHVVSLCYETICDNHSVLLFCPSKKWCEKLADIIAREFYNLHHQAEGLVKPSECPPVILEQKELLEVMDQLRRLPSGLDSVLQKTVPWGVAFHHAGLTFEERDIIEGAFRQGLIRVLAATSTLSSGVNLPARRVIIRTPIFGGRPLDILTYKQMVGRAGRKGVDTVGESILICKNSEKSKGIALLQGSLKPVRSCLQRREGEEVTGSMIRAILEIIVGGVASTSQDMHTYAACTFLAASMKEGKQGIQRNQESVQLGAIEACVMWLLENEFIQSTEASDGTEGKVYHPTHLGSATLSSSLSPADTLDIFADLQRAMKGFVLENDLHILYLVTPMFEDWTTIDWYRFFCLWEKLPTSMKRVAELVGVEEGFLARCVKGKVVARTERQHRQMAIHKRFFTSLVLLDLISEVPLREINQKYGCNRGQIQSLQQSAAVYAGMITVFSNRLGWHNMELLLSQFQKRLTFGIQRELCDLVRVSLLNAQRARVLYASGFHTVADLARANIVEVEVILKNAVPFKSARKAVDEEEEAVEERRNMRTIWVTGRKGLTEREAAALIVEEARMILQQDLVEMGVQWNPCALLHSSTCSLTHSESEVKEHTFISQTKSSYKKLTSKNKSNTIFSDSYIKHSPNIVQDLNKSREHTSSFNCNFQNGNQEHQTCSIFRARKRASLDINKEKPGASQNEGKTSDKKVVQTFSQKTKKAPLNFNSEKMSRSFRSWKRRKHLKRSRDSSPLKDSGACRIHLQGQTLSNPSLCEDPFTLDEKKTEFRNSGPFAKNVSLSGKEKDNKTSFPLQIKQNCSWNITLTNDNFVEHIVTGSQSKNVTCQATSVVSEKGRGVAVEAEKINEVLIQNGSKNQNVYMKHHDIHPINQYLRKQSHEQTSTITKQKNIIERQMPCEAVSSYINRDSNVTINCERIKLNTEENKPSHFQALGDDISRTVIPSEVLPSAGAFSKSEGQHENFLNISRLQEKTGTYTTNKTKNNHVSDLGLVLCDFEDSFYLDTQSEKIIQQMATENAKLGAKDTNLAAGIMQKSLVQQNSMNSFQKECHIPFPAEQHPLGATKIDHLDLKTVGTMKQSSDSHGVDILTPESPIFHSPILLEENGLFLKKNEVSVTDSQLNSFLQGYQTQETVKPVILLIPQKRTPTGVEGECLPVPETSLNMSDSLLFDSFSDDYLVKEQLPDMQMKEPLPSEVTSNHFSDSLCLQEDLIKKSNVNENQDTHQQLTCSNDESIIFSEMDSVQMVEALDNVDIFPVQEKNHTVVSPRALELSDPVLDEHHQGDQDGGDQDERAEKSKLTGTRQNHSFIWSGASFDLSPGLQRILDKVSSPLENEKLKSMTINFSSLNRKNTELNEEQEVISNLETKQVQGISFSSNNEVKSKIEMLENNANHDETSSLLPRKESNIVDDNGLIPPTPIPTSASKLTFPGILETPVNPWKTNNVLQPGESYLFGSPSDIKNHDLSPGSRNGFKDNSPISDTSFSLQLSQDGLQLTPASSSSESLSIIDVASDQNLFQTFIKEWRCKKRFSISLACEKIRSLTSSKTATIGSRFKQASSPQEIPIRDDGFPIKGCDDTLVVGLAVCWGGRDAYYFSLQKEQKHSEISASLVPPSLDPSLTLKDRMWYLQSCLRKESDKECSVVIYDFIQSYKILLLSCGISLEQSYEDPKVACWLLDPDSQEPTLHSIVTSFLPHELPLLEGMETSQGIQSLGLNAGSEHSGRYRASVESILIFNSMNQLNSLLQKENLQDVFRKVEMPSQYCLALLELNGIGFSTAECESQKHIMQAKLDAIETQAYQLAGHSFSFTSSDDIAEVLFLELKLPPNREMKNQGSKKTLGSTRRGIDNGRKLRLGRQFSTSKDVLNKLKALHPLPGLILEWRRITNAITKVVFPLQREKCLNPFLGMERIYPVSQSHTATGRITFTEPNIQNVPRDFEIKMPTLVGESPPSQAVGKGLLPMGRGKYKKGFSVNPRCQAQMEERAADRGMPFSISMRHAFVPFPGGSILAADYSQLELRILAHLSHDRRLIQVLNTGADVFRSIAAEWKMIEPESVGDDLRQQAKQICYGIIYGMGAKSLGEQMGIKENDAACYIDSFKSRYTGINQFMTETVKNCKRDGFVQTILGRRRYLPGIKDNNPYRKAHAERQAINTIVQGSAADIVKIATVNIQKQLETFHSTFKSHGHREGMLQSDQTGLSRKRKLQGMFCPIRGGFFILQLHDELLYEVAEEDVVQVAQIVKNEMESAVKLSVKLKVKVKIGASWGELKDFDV
row,IC50 [nM],SMILES
1,11,"CC(=O)N1CCN(CCCN2C[C@@H](C(=O)N(C)c3ccc(F)c(Cl)c3F)N(c3cc(C(F)(F)F)cc(C)n3)C2=O)CC1 [Example 221, (S)-1-(3-(4-Acetylpiperazin-1-yl)propyl)-N-(3-chloro-2,4-difluorophenyl)-N-methyl-3-(6-methyl-4-(trifluoromethyl)pyridin-2-yl)-2-oxoimidazolidine-4-carboxamide]"
2,9,"Cc1cc(C(F)(F)F)cc(N2C(=O)N(CC3(O)CCNC3)C[C@H]2C(=O)N(C)c2ccc(F)c(Cl)c2F)n1 (stereo partly drawn) [Example 222, (4S)—N-(3-Chloro-2,4-difluorophenyl)-1-((3-hydroxypyrrolidin-3-yl)methyl)-N-methyl-3-(6-methyl-4-(trifluoromethyl)pyridin-2-yl)-2-oxoimidazolidine-4-carboxamide]"
3,8,"Cc1cc(C(F)(F)F)cc(N2C(=O)N(CC3(O)CCN(C)C3)C[C@H]2C(=O)N(C)c2ccc(F)c(Cl)c2F)n1 (stereo partly drawn) [Example 223, (4S)—N-(3-Chloro-2,4-difluorophenyl)-1-((3-hydroxy-1-methylpyrrolidin-3-yl)methyl)-N-methyl-3-(6-methyl-4-(trifluoromethyl)pyridin-2-yl)-2-oxoimidazolidine-4-carboxamide]"
4,6,"Cc1cc(C(F)(F)F)cc(N2C(=O)N(CC3(O)CNC3)C[C@H]2C(=O)N(C)c2ccc(F)c(Cl)c2F)n1 [Example 224, (S)—N-(3-Chloro-2,4-difluorophenyl)-1-((3-hydroxyazetidin-3-yl)methyl)-N-methyl-3-(6-methyl-4-(trifluoromethyl)pyridin-2-yl)-2-oxoimidazolidine-4-carboxamide]"
5,17,"Cc1cc(C(F)(F)F)cc(N2C(=O)N(CC3(O)CNC3)C[C@H]2C(=O)N(C)c2ccc(F)c(Cl)c2)n1 [Example 225, (S)—N-(3-Chloro-4-fluorophenyl)-1-((3-hydroxyazetidin-3-yl)methyl)-N-methyl-3-(6-methyl-4-(trifluoromethyl)pyridin-2-yl)-2-oxoimidazolidine-4-carboxamide]"
6,19,"Cc1cc(C(F)(F)F)cc(N2C(=O)N(CC(O)CO)C[C@H]2C(=O)N(C)c2ccc(F)c(Cl)c2F)n1 (stereo partly drawn) [Example 226, (4S)—N-(3-Chloro-2,4-difluorophenyl)-1-(2,3-dihydroxypropyl)-N-methyl-3-(6-methyl-4-(trifluoromethyl)pyridin-2-yl)-2-oxoimidazolidine-4-carboxamide]"
7,6,"Cc1cc(C(F)(F)F)cc(N2C(=O)N(CCOS(N)(=O)=O)C[C@H]2C(=O)N(C)c2ccc(F)c(Cl)c2F)n1 [Example 227, (S)-2-(4-((3-Chloro-2,4-difluorophenyl)(methyl)carbamoyl)-3-(6-methyl-4-(trifluoromethyl)pyridin-2-yl)-2-oxoimidazolidin-1-yll sulfamate]"
8,62,"Cc1cc(C(F)(F)F)cc(N2C(=O)N(CCN=S(C)(C)=O)C[C@H]2C(=O)N(C)c2ccc(F)c(Cl)c2)n1 [Example 228, (S)—N-(3-Chloro-4-fluorophenyl)-1-(2-((dimethyl(oxo)-16-sulfaneylidene)amino)ethyl)-N-methyl-3-(6-methyl-4-(trifluoromethyl)pyridin-2-yl)-2-oxoimidazolidine-4-carboxamide]"
9,94,"Cc1cc(C(F)(F)F)cc(N2C(=O)N(CC(O)CO)C[C@H]2C(=O)N(c2ccc(F)c(Cl)c2)C2CC2)n1 (stereo partly drawn) [Example 231, (4S)—N-(3-Chloro-4-fluorophenyl)-N-cyclopropyl-1-(2,3-dihydroxypropyl)-3-(6-methyl-4-(trifluoromethyl)pyridin-2-yl)-2-oxoimidazolidine-4-carboxamide]"
10,15,"Cc1cc(C(F)(F)F)cc(N2C(=O)N(CCC(O)CO)C[C@H]2C(=O)N(C)c2ccc(F)c(Cl)c2)n1 (stereo partly drawn) [Example 232, (4S)—N-(3-Chloro-4-fluorophenyl)-1-(3,4-dihydroxybutyl)-N-methyl-3-(6-methyl-4-(trifluoromethyl)pyridin-2-yl)-2-oxoimidazolidine-4-carboxamide]"
11,3,"Cc1cc(C(F)(F)F)cc(N2C(=O)NC[C@H]2C(=O)N(C)c2ccc3cc[nH]c3n2)n1 [Example 233, (S)—N-Methyl-3-(6-methyl-4-(trifluoromethyl)pyridin-2-yl)-2-oxo-N-(1H-pyrrolo[2,3-b]pyridin-6-yl)imidazolidine-4-carboxamide]"
12,5,"Cc1cc(C(F)(F)F)cc(N2C(=O)NC[C@H]2C(=O)N(C)c2ccc3ccn(C)c3n2)n1 [Example 234, (S)—N-Methyl-N-(1-methyl-1H-pyrrolo[2,3-b]pyridin-6-yl)-3-(6-methyl-4-(trifluoromethyl)pyridin-2-yl)-2-oxoimidazolidine-4-carboxamide]"
13,27,"Cc1cc(C(F)(F)F)cc(N2C(=O)NC[C@H]2C(=O)N(C)c2ccc3cnn(C)c3c2)n1 [Example 235, (S)—N-Methyl-N-(1-methyl-1H-indazol-6-yl)-3-(6-methyl-4-(trifluoromethyl)pyridin-2-yl)-2-oxoimidazolidine-4-carboxamide]"
14,14,"Cc1cc(C(F)(F)F)cc(N2C(=O)NC[C@H]2C(=O)N(C)c2ccc3occ(C)c3n2)n1 [Example 236, (S)—N-Methyl-3-(6-methyl-4-(trifluoromethyl)pyridin-2-yl)-N-(3-methylfuro[3,2-b]pyridin-5-yl)-2-oxoimidazolidine-4-carboxamide]"
15,37,"Cc1cc(C(F)(F)F)cc(N2C(=O)NC[C@H]2C(=O)N(C)c2ccc3sccc3n2)n1 [Example 237, (S)—N-Methyl-3-(6-methyl-4-(trifluoromethyl)pyridin-2-yl)-2-oxo-N-(thieno[3,2-b]pyridin-5-yl)imidazolidine-4-carboxamide]"
16,28,"Cc1cc(C(F)(F)F)cc(N2C(=O)NC[C@H]2C(=O)N(C)c2ccc3c(C)n[nH]c3c2)n1 [Example 238, (S)—N-Methyl-N-(3-methyl-1H-indazol-6-yl)-3-(6-methyl-4-(trifluoromethyl)pyridin-2-yl)-2-oxoimidazolidine-4-carboxamide]"
17,6,"Cc1cc(C(F)(F)F)cc(N2C(=O)NC[C@H]2C(=O)N(C)c2ccc3c(F)c[nH]c3n2)n1 [Example 239, (S)—N-(3-Fluoro-1H-pyrrolo[2,3-b]pyridin-6-yl)-N-methyl-3-(6-methyl-4-(trifluoromethyl)pyridin-2-yl)-2-oxoimidazolidine-4-carboxamide]"
18,7,"Cc1cc(C(F)(F)F)cc(N2C(=O)NC[C@H]2C(=O)N(C)c2ccc3c(Cl)c[nH]c3n2)n1 [Example 240, (S)—N-(3-Chloro-1H-pyrrolo[2,3-b]pyridin-6-yl)-N-methyl-3-(6-methyl-4-(trifluoromethyl)pyridin-2-yl)-2-oxoimidazolidine-4-carboxamide]"
19,240,"Cc1cc(C(F)(F)F)c(C#N)c(N2[C@H](C)CC[C@H]2C(=O)N(C)c2ccc(F)c(Cl)c2)n1 [Example 241, (2S,5R)—N-(3-Chloro-4-fluorophenyl)-1-(3-cyano-6-methyl-4-(trifluoromethyl)pyridin-2-yl)-N,5-dimethylpyrrolidine-2-carboxamide]"
20,311,"Cc1cc(C(F)(F)F)c(C#N)c(N2[C@@H](C)CC[C@H]2C(=O)N(C)c2ccc(F)c(Cl)c2)n1 [Example 242, (2S,5S)—N-(3-Chloro-4-fluorophenyl)-1-(3-cyano-6-methyl-4-(trifluoromethyl)pyridin-2-yl)-N,5-dimethylpyrrolidine-2-carboxamide]"
21,39,"Cc1cc(C(F)(F)F)c(C#N)c(N2CCC[C@H]2C(=O)N(C)c2ccc3ccn(C)c3n2)n1 [Example 243, (S)-1-(3-Cyano-6-methyl-4-(trifluoromethyl)pyridin-2-yl)-N-methyl-N-(1-methyl-1H-pyrrolo[2,3-b]pyridin-6-yl)pyrrolidine-2-carboxamide]"
22,130,"Cc1cc(C(F)(F)F)c(C#N)c(N2CCC[C@H]2C(=O)N(C)c2cc(Cl)c3ccn(C)c3n2)n1 [Example 244, (S)—N-(4-Chloro-1-methyl-pyrrolo[2,3-b]pyridin-6-yl)-1-[3-cyano-6-methyl-4-(trifluoromethyl)-2-pyridyl]-N-methyl-pyrrolidine-2-carboxamide]"
23,74,"Cc1cc(C(F)(F)F)c(C#N)c(N2CCC[C@H]2C(=O)N(C)c2ccc3c(n2)N(C)CCO3)n1 [Example 245, (S)-1-(3-Cyano-6-methyl-4-(trifluoromethyl)pyridin-2-yl)-N-methyl-N-(4-methyl-3,4-dihydro-2H-pyrido[3,2-b][1,4]oxazin-6-yl)pyrrolidine-2-carboxamide]"
